Experimental data taken from US11827917B1, “Methods for the conversion of fermentable sugars to ethanol” (Colorado State University Research Foundation, priority 2020, dated 2023).
Marks after values point to notes of the source that are not given here.

Tests used:
[1] = test system: S. cerevisiae JAY 270; assay: 1-L batch bioreactor fermentation, time course; format: cell-based, Saccharomyces cerevisiae; details: for Biomass Yield / Biomass yield % change vs. control / EtOH yield / EtOH yield % change vs. control / Glycerol yield / Glycerol yield % change vs. control: 1-L bioreactor, 24 hours; for Biomass yield, lower in comparison to control: addition in the fermentation medium
Description: Yeast strain: S. cerevisiae JAY 270, as in Example 1. Inocula for bioreactor experiments with PheOH and TrpOH S. cerevisiae JAY 270 were prepared by culturing the yeast in 100 mL of YPD medium in 200-mL serum bottles overnight in a shaker at 30° C. and 200 rpm. The cells were collected by centrifuging 10 min at 4000×g and 4° C. The cell pellet was washed twice using sterile 0.8% (w/v) NaCl solution. Finally, the cell pellet was resuspended in about 15 mL of 0.8% (w/v) NaCl.
Procedure: Fermentations were carried out in two Eppendorf BioFlo 115 bioreactors containing 1 L sterile YNB medium with 20 g/L glucose (Difco Yeast Nitrogen Base, catalog number 239210). The prepared yeast cells were inoculated in the bioreactor vessels to obtain an initial yeast cell concentration of OD600≈0.1. The fermentation was conducted at pH 5.5, 30° C., and 200 rpm agitation. Ultrapure N2 was sparged at 0.1 standard liters per minute in the bioreactor vessels to maintain anaerobic conditions. Samples were collected at different time points to monitor cell, glucose, and ethanol concentrations.
For experiments with added PheOH, 2.0 mL of PheOH stock solution was added to one of the two vessels when the OD600 reached 1.0 to achieve a final concentration of 0.2% (w/v). In the serum bottle tests, TrpOH had stronger effects on yeast cell growth than PheOH at the same tested concentration. A study in serum bottles was then conducted to determine the TrpOH concentration that would have a similar growth inhibitory effect. […] Thus, for bioreactor experiments on the effects of TrpOH, the TrpOH was added at 0.12%. Since TrpOH was dissolved in DMSO, the same concentration of DMSO was added in the control bioreactor at the same time. All other bioreactor conditions were the same as in the PheOH test.
Samples were collected from the bioreactors every hour post-addition for 6 h, and again after 24 hours of cultivation. Each experiment was repeated in triplicate.

[2] = test system: S. cerevisiae ATCC 26603; assay: Serum-bottle cultivation in YPD, different yeast strains; format: cell-based, Saccharomyces cerevisiae; details: 0.2%; for DCW / DCW Δ vs. ref / OD600 / OD600 Δ vs. ref: S. cerevisiae ATCC 26603, YPD
Description: Analytical methods: Cell growth was evaluated by monitoring OD600 and cell dry mass concentration. For dry mass measurements, 1.0 mL of culture was transferred to a pre-dried and pre-weighed 2-mL centrifuge tube. The tubes were centrifuged for 10 min at 14000 rpm using a microcentrifuge, and then the cell pellets were dried in an oven for 3 days at 65° C. The cell dry mass was determined by subtracting the initial tube mass from the dried mass of tube with cells. The concentrations of glucose, ethanol, and glycerol were measured via HPLC (Shimadzu LC20A series) outfitted with a refractive index detector and using an Aminex HPX-87H (300×7.8 mm) organic acid column and Cation H+ guard cartridge (Bio Rad Laboratories, Hercules, CA). The column was maintained at 65° C. and the mobile phase was 5 mM sulfuric acid with a flow rate of 0.6 mL/min. Standard compound solutions were used to calibrate the HPLC. Each sample was analyzed three times by HPLC.
Procedure: Seven yeast strains (S. cerevisiae ATCC 26603, S. cerevisiae JAY 238, S. cerevisiae JAY 240, S. cerevisiae JAY 241, S. paradoxus JAY 1502, S. kudriavzezii JAY 1503, and S. mikatae JAY 1504) were pre-cultured in 30 mL of YPD medium in 100 mL serum bottle overnight in a shaker at 30° C. and 200 rpm. The precultured yeast cells of each strains were collected and washed twice. Finally, the cell pellet was resuspended in about 10 mL 0.8% (w/v) NaCl and the OD600 measured. TyrOH, PheOH, and TrpOH were added to 30 mL of YPD medium in 100-mL serum bottles at 0.2% (w/v) respectively. The same amount of DMSO was added in YPD medium and served as control to the TrpOH and TyrOH treatments. The prepared yeast cells were added to obtain the initial cell concentration at OD600=0.2. The serum bottles were sealed and cultured in a shaker at 30° C. and 200 rpm for 24 h. There were three biological replicates for each treatment.

[3] = test system: yeast; assay: Yeast growth and ethanol yield in serum bottles, low/high cell inoculum (Tables 5, 6); format: cell-based
[4] = S. cerevisiae ATCC 26603, YPD (Table 9B)
[5] = 0.05%, high cell inoculum (OD600 at 0 h 1.96), 26 h test
[6] = 0.05%, low cell inoculum (OD600 at 0 h 0.70), 26 h test
[7] = 0.1%, high cell inoculum (OD600 at 0 h 1.96), 26 h test
[8] = 0.1%, low cell inoculum (OD600 at 0 h 0.70), 26 h test
[9] = 0.2%, high cell inoculum (OD600 at 0 h 1.96), 26 h test
[10] = 0.2%, low cell inoculum (OD600 at 0 h 0.70), 26 h test
[11] = 0.05%, high cell inoculum (OD600 at 0 h 0.85), 48 h test
[12] = 0.05%, low cell inoculum (OD600 at 0 h 0.30), 48 h test
[13] = 0.1%, high cell inoculum (OD600 at 0 h 0.85), 48 h test
[14] = 0.1%, low cell inoculum (OD600 at 0 h 0.30), 48 h test
[15] = 0.2%, high cell inoculum (OD600 at 0 h 0.85), 48 h test
[16] = 0.2%, low cell inoculum (OD600 at 0 h 0.30), 48 h test

OCCc1ccccc1 [PheOH, 2-phenylethanol]
Glycerol concentration, decrease ([1]; PheOH 0.2%): 21%
Biomass Yield ([1]; PheOH 0.2% (w/v)): 0.063 ± 0.008 g/g
Biomass yield % change vs. control ([1]; PheOH 0.2% (w/v)): −23 ± 5 %
EtOH yield ([1]; PheOH 0.2% (w/v)): 0.435 ± 0.003 g/g
EtOH yield % change vs. control ([1]; PheOH 0.2% (w/v)): 5.3 ± 0.8 %
Glycerol yield ([1]; PheOH 0.2% (w/v)): 0.071 ± 0.001 g/g
Glycerol yield % change vs. control ([1]; PheOH 0.2% (w/v)): −20 ± 2 %
EtOH yield % change vs. control ([1]; PheOH 0.2% (w/v), listed as 2-phenylethanol): 6%
Final cell concentration, lower than control ([1]; PheOH 0.2%, 24 h): 22%
Glucose remaining ([1]; PheOH 0.2%, after 12 h (control completely consumed)): about 2 g/L
Biomass yield, lower in comparison to control [1]: about 20%
Biomass Yield ([2]; S. cerevisiae ATCC 26603): 0.052 ± 0.001 g/g
Biomass yield % change vs. control ([2]; S. cerevisiae ATCC 26603): −22* %
EtOH yield ([2]; S. cerevisiae ATCC 26603): 0.453 ± 0.006 g/g
EtOH yield % change vs. control ([2]; S. cerevisiae ATCC 26603): +1.2%
Glycerol yield ([2]; S. cerevisiae ATCC 26603): 0.054 ± 0.001 g/g
Glycerol yield % change vs. control ([2]; S. cerevisiae ATCC 26603): −25* %
DCW [2]: 1.40 mg
DCW Δ vs. ref [2]: 76.4%
OD600 [2]: 1.27
OD600 Δ vs. ref [2]: 85.6%
Biomass Yield [2, 4]: 0.052 + 0.001 g/g
Biomass yield Δ vs. ref [2, 4]: −22.3%
Ethanol yield [2, 4]: 0.453 ± 0.006 g/g
Ethanol yield Δ vs. ref [2, 4]: 1.2%
Glycerol yield [2, 4]: 0.054 ± 0.001 g/g
Glycerol yield Δ vs. ref [2, 4]: −25.07%
OD600 at 26 h ([3]; 0.05%, high cell inoculum (OD600 at 0 h 1.96)): 4.24
EtOH yield [3, 5]: 0.47 g/g
EtOH yield % Δ from control [3, 5]: 3.1%
OD600 at 26 h ([3]; 0.05%, low cell inoculum (OD600 at 0 h 0.70)): 3.28
EtOH yield [3, 6]: 0.47 g/g
EtOH yield % Δ from control [3, 6]: −1.9%
OD600 at 26 h ([3]; 0.1%, high cell inoculum (OD600 at 0 h 1.96)): 3.99
EtOH yield [3, 7]: 0.47 g/g
EtOH yield % Δ from control [3, 7]: 1.7%
OD600 at 26 h ([3]; 0.1%, low cell inoculum (OD600 at 0 h 0.70)): 2.83
EtOH yield [3, 8]: 0.45 g/g
EtOH yield % Δ from control [3, 8]: −4.6%
OD600 at 26 h ([3]; 0.2%, high cell inoculum (OD600 at 0 h 1.96)): 3.53
EtOH yield [3, 9]: 0.48 g/g
EtOH yield % Δ from control [3, 9]: 4.9%
OD600 at 26 h ([3]; 0.2%, low cell inoculum (OD600 at 0 h 0.70)): 2.41
EtOH yield [3, 10]: 0.47 g/g
EtOH yield % Δ from control [3, 10]: −1.1%

OCCc1c[nH]c2ccccc12 [TrpOH, tryptophol]
Biomass Yield ([1]; TrpOH 0.12% (w/v)): 0.063 ± 0.008 g/g
Biomass yield % change vs. control ([1]; TrpOH 0.12% (w/v)): −28 ± 5 %
EtOH yield ([1]; TrpOH 0.12% (w/v)): 0.420 ± 0.012 g/g
EtOH yield % change vs. control ([1]; TrpOH 0.12% (w/v)): 6.5 ± 3.1 %
Glycerol yield ([1]; TrpOH 0.12% (w/v)): 0.070 ± 0.004 g/g
Glycerol yield % change vs. control ([1]; TrpOH 0.12% (w/v)): −17 ± 2 %
EtOH yield % change vs. control ([1]; TrpOH 0.12% (w/v), listed as tryptophol): 10%
Final cell concentration, lower than control ([1]; TrpOH 0.12%, 24 h): about 22%
Glycerol concentration, lower than control ([1]; TrpOH 0.12%, 24 h): 17%
Final cell concentration, lower than control ([1]; TrpOH 0.12%, 24 h, listed as tryptophol): 22%
Biomass yield, lower in comparison to control [1]: about 20%
Biomass Yield ([2]; S. cerevisiae ATCC 26603): 0.059 ± 0.001 g/g
Biomass yield % change vs. control ([2]; S. cerevisiae ATCC 26603): −17* %
EtOH yield ([2]; S. cerevisiae ATCC 26603): 0.495 ± 0.008 g/g
Glycerol yield ([2]; S. cerevisiae ATCC 26603): 0.054 ± 0.005 g/g
Glycerol yield % change vs. control ([2]; S. cerevisiae ATCC 26603): −25* %
DCW [2]: 1.13 mg
DCW Δ vs. ref [2]: 64.2%
OD600 [2]: 0.77
OD600 Δ vs. ref [2]: 54.8%
Biomass Yield [2, 4]: 0.059 + 0.001 g/g
Biomass yield Δ vs. ref [2, 4]: −16.7%
Ethanol yield [2, 4]: 0.495 ± 0.008 g/g
Ethanol yield Δ vs. ref [2, 4]: 14.2%
Glycerol yield [2, 4]: 0.054 ± 0.005 g/g
Glycerol yield Δ vs. ref [2, 4]: −24.74%
OD600 at 48 h ([3]; 0.05%, high cell inoculum (OD600 at 0 h 0.85)): 2.47
EtOH yield [3, 11]: 0.52 g/g
EtOH yield % Δ from control [3, 11]: 4.6%
OD600 at 48 h ([3]; 0.05%, low cell inoculum (OD600 at 0 h 0.30)): 1.17
EtOH yield [3, 12]: 0.50 g/g
EtOH yield % Δ from control [3, 12]: 5.7%
OD600 at 48 h ([3]; 0.1%, high cell inoculum (OD600 at 0 h 0.85)): 1.87
EtOH yield [3, 13]: 0.54 g/g
EtOH yield % Δ from control [3, 13]: 7.6%
OD600 at 48 h ([3]; 0.1%, low cell inoculum (OD600 at 0 h 0.30)): 0.79
EtOH yield [3, 14]: 0.50 g/g
EtOH yield % Δ from control [3, 14]: 2.2%
OD600 at 48 h ([3]; 0.2%, high cell inoculum (OD600 at 0 h 0.85)): 1.40
EtOH yield [3, 15]: 0.51 g/g
EtOH yield % Δ from control [3, 15]: 1.9%
OD600 at 48 h ([3]; 0.2%, low cell inoculum (OD600 at 0 h 0.30)): 0.51
EtOH yield [3, 16]: 0.52 g/g
EtOH yield % Δ from control [3, 16]: 5.9%

OCCc1ccc(O)cc1 [TyrOH, Tyrosol]
Biomass Yield ([2]; S. cerevisiae ATCC 26603): 0.056 ± 0.003 g/g
Biomass yield % change vs. control ([2]; S. cerevisiae ATCC 26603): −21* %
EtOH yield ([2]; S. cerevisiae ATCC 26603): 0.467 ± 0.015 g/g
EtOH yield % change vs. control ([2]; S. cerevisiae ATCC 26603): +7.7* %
Glycerol yield ([2]; S. cerevisiae ATCC 26603): 0.064 ± 0.006 g/g
Glycerol yield % change vs. control ([2]; S. cerevisiae ATCC 26603): −12* %
DCW [2]: 1.53 mg
DCW Δ vs. ref [2]: 86.8%
OD600 [2]: 1.34
OD600 Δ vs. ref [2]: 95.5%
Biomass Yield [2, 4]: 0.056 + 0.003 g/g
Biomass yield Δ vs. ref [2, 4]: −20.6%
Ethanol yield [2, 4]: 0.467 ± 0.015 g/g
Ethanol yield Δ vs. ref [2, 4]: 7.7%
Glycerol yield [2, 4]: 0.064 ± 0.006 g/g
Glycerol yield Δ vs. ref [2, 4]: −11.82%
